The data set is described as follows: first-order primary biodegradation rate constant k (sorption-corrected, fDis-corrected) (d-1); higher = faster biodegradation. As for the experimental part: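 Modified OECD 309 water-sediment test. River water plus sieved sediment (50 g wet solid/L) from European river segments (DE, CH, ES, EL) was spiked with a mixture of 129 compounds at 1 ug/L each and incubated in the dark at river temperature for 10 days. The water phase was analysed by UHPLC-Orbitrap-MS. The first-order primary biodegradation rate constant k (d-1) is k_observed, corrected for dissipation in sterile sorption controls and divided by the dissolved fraction fDis; it was fitted over 3 replicate incubations. Invalid fits (p > 0.05, n < 5, not available, concentration increase) are excluded.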

[1] abbreviates: river segment: Germany (DE) H_Contam, incubation temperature 24 °C.
The mark [2] stands for this setting: river segment: Greece (EL) A_Contam, incubation temperature 19 °C.
[3] abbreviates: river segment: Greece (EL) G_Contam, incubation temperature 19 °C.
The mark [4] stands for this setting: river segment: Greece (EL) L_Contam, incubation temperature 19 °C.
[5] abbreviates: river segment: Spain (ES) L_Contam, incubation temperature 24 °C.
Setting [6] is: river segment: Switzerland (CH) C_Contam, incubation temperature 17 °C.
[7] abbreviates: river segment: Switzerland (CH) R_Contam, incubation temperature 17 °C.
Where [8] appears, read: river segment: Switzerland (CH) U_Contam, incubation temperature 17 °C.
Setting [9] is: river segment: Germany (DE) T_Contam, incubation temperature 24 °C.
Setting [10] is: river segment: Germany (DE) T_Pris, incubation temperature 24 °C.
Where [11] appears, read: river segment: Spain (ES) B_Contam, incubation temperature 24 °C.
[12] abbreviates: river segment: Spain (ES) C_Contam, incubation temperature 24 °C.
The mark [13] stands for this setting: river segment: Spain (ES) F_Pris_Salt, incubation temperature 24 °C.
Setting [14] is: river segment: Switzerland (CH) U_Pris, incubation temperature 17 °C.
Where [15] appears, read: river segment: Greece (EL) G_Pris, incubation temperature 19 °C.

The structures appear in SMILES notation.

The source of these data is the supplement of paper PMC11562712.

`CCCCC(CC)COCC(O)CO` (stereo not given) [3-((2-Ethylhexyl)oxy)propane-1,2-diol]: the “first-order primary biodegradation rate constant k” value came out at 1.43 under setting [1]; 0.277 under setting [2]; 1.93 under setting [3]; 5.22 under setting [4]; 0.469 under setting [5]; 6.13 under setting [6]. For the same compound, the “first-order primary biodegradation rate constant k” value is, setting by setting: under setting [7], 0.288; under setting [8], 0.0899.
Consider `O=[N+]([O-])c1ccc(Cc2ccncc2)cc1` [4-(4-Nitrobenzyl)pyridine], for which the “first-order primary biodegradation rate constant k” value is 0.499 under setting [1]; 1.05 under setting [9]; 0.446 under setting [10]; 1.09 under setting [2]; 1.68 under setting [3]; 1.94 under setting [4]. The “first-order primary biodegradation rate constant k” value runs as follows: under setting [11], 0.863; under setting [12], 0.301; under setting [13], 0.146; under setting [5], 1.1; under setting [6], 0.314; under setting [7], 0.45. Further, the “first-order primary biodegradation rate constant k” value was 1.95 under setting [8] and 2.28 under setting [14].
In the case of `Cc1cc(O)cc(C)c1Cl` [4-Chloro-3,5-dimethylphenol], the “first-order primary biodegradation rate constant k” value under setting [1] turned out to be 1.4; the “first-order primary biodegradation rate constant k” value under setting [9] was determined as 2.27; the “first-order primary biodegradation rate constant k” value under setting [10] stood at 1.68; the “first-order primary biodegradation rate constant k” value under setting [2] amounted to 2.03; the “first-order primary biodegradation rate constant k” value under setting [3] was 0.169; the “first-order primary biodegradation rate constant k” value under setting [15] was 3.52. Further, the “first-order primary biodegradation rate constant k” value is, setting by setting: under setting [4], 3.5; under setting [12], 2.41; under setting [13], 0.228; under setting [5], 4.19; under setting [14], 4.31.
As for `Cc1ccc2n[nH]nc2c1` [5-Methylbenzotriazole], the “first-order primary biodegradation rate constant k” value was 0.0462 under setting [1]; 0.0831 under setting [9]; 0.00627 under setting [10]; 0.327 under setting [2]; 0.771 under setting [15]; 0.219 under setting [4]. For the same compound, the “first-order primary biodegradation rate constant k” value is, setting by setting: under setting [11], 0.0714; under setting [12], 0.102; under setting [5], 0.219; under setting [6], 0.0095; under setting [7], 0.134; under setting [8], 0.139. For the same compound, the “first-order primary biodegradation rate constant k” value under setting [14] stood at 0.282.
For the compound `Nc1nc(NC2CC2)c2ncn([C@H]3C=C[C@@H](CO)C3)c2n1` [Abacavir], the “first-order primary biodegradation rate constant k” value by setting is: under setting [1], 1.6; under setting [9], 1.17; under setting [10], 1.37; under setting [2], 2.15; under setting [3], 1.43; under setting [15], 2.35. Also, the “first-order primary biodegradation rate constant k” value under setting [4] was determined as 12; the “first-order primary biodegradation rate constant k” value under setting [12] was determined as 0.639; the “first-order primary biodegradation rate constant k” value under setting [13] came out at 0.449; the “first-order primary biodegradation rate constant k” value under setting [5] was 2.21; the “first-order primary biodegradation rate constant k” value under setting [6] came to 0.83; the “first-order primary biodegradation rate constant k” value under setting [7] was found to be 1.18. Also, the “first-order primary biodegradation rate constant k” value under setting [8] was 1.47 and the “first-order primary biodegradation rate constant k” value under setting [14] was 1.5.
